System: MV-4-11 cells
Assay: Gene expression microarray analysis (Affymetrix PrimeView) and GSEA
Assay type: cell-based, human
Set-up: RFU PODN (11730768_x_at) / Fold change /veh PODN (11730768_x_at) / RFU LINC00158 (11744669_a_at) / Fold change /veh LINC00158 (11744669_a_at) / RFU DUSP10 (11751237_a_at) / Fold change /veh DUSP10 (11751237_a_at) / RFU ID3 (11757404_x_at) / Fold change /veh ID3 (11757404_x_at) / RFU PLEKHG5 (11737974_s_at) / Fold change /veh PLEKHG5 (11737974_s_at) / RFU LRRC4B (11730491_at) / Fold change /veh LRRC4B (11730491_at) / RFU GIMAP4 (11747438_a_at) / Fold change /veh GIMAP4 (11747438_a_at) / RFU KRT8 (11758183_x_at) / Fold change /veh KRT8 (11758183_x_at) / RFU CNN1 (11734310_a_at) / Fold change /veh CNN1 (11734310_a_at) / RFU VPS37D (11726825_at) / Fold change /veh VPS37D (11726825_at) / RFU C10orf10 (11716522_x_at) / Fold change /veh C10orf10 (11716522_x_at) / RFU KIR2DL2 /// KIR2DL4 /// KIR2DL5A /// KIR2DL5B /// KIR2DS1 /// KIR2DS2 /// KIR2DS3 /// KIR2DS4 /// KIR3DL3 /// KIR3DL3 /// KIR3DS1 (11738374_at) / Fold change /veh KIR2DL2 /// KIR2DL4 /// KIR2DL5A /// KIR2DL5B /// KIR2DS1 /// KIR2DS2 /// KIR2DS3 /// KIR2DS4 /// KIR3DL3 /// KIR3DL3 /// KIR3DS1 (11738374_at) / RFU C1QL1 (11718748_at) / Fold change /veh C1QL1 (11718748_at) / RFU TMPRSS4 (11747572_a_at) / Fold change /veh TMPRSS4 (11747572_a_at) / RFU HAMP (11756126_x_at) / Fold change /veh HAMP (11756126_x_at) / RFU RNFT2 (11725882_a_at) / Fold change /veh RNFT2 (11725882_a_at) / RFU NR4A2 (11747474_a_at) / Fold change /veh NR4A2 (11747474_a_at) / RFU ABCC12 (11746883_a_at) / Fold change /veh ABCC12 (11746883_a_at) / RFU TMEM136 (11760407_x_at) / Fold change /veh TMEM136 (11760407_x_at) / RFU CLDN22 /// WWC2 (11732394_at) / Fold change /veh CLDN22 /// WWC2 (11732394_at) / RFU HLA-DPB1 (11760878_x_at) / Fold change /veh HLA-DPB1 (11760878_x_at) / RFU SPINT1 (11716480_a_at) / Fold change /veh SPINT1 (11716480_a_at) / RFU GAP43 (11754022_s_at) / Fold change /veh GAP43 (11754022_s_at) / RFU A4GNT (11735810_at) / Fold change /veh A4GNT (11735810_at) / RFU PRB3 (11715151_x_at) / Fold change /veh PRB3 (11715151_x_at) / RFU TUBB4B (11761932_at) / Fold change /veh TUBB4B (11761932_at) / RFU CAPN14 (11732068_a_at) / Fold change /veh CAPN14 (11732068_a_at) / RFU TMCC2 (11721928_a_at) / Fold change /veh TMCC2 (11721928_a_at) / RFU IRGQ (11745062_a_at) / Fold change /veh IRGQ (11745062_a_at) / RFU FAM174B (11720279_a_at) / Fold change /veh FAM174B (11720279_a_at) / RFU TMPRSS4 (11748680_a_at) / Fold change /veh TMPRSS4 (11748680_a_at) / RFU FAM212B (11763350_a_at) / Fold change /veh FAM212B (11763350_a_at) / RFU PLEKHG5 (11743358_a_at) / Fold change /veh PLEKHG5 (11743358_a_at) / RFU ZSCAN30 (11745921_a_at) / Fold change /veh ZSCAN30 (11745921_a_at) / RFU CMKLR1 (11741424_a_at) / Fold change /veh CMKLR1 (11741424_a_at) / RFU LOC101060620 /// MAPK8IP1 (11723275_at) / Fold change /veh LOC101060620 /// MAPK8IP1 (11723275_at) / RFU SPTSSB (11747773_x_at) / Fold change /veh SPTSSB (11747773_x_at) / RFU PRSS12 (11739890_at) / Fold change /veh PRSS12 (11739890_at) / RFU BIN1 (11741810_x_at) / Fold change /veh BIN1 (11741810_x_at) / RFU WNT11 (11732464_a_at) / Fold change /veh WNT11 (11732464_a_at) / RFU C10orf10 (11716521_a_at) / Fold change /veh C10orf10 (11716521_a_at) / RFU C5orf56 (11738089_at) / Fold change /veh C5orf56 (11738089_at) / RFU CYB561 (11721691_x_at) / Fold change /veh CYB561 (11721691_x_at) / RFU ANKRD19P (11752326_a_at) / Fold change /veh ANKRD19P (11752326_a_at) / RFU OR2T12 /// OR2T33 /// OR2T8 (11738714_s_at) / Fold change /veh OR2T12 /// OR2T33 /// OR2T8 (11738714_s_at) / RFU VCAN (11748164_a_at) / Fold change /veh VCAN (11748164_a_at) / RFU JSRP1 (11732532_at) / Fold change /veh JSRP1 (11732532_at) / RFU KRTAP10-11 (11738290_x_at) / Fold change /veh KRTAP10-11 (11738290_x_at) / RFU MYO3A (11730013_a_at) / Fold change /veh MYO3A (11730013_a_at) / RFU EBF3 (11725865_a_at) / Fold change /veh EBF3 (11725865_a_at) / RFU CAMK2N1 (11719241_x_at) / Fold change /veh CAMK2N1 (11719241_x_at) / RFU C5orf56 (11738088_a_at) / Fold change /veh C5orf56 (11738088_a_at) / RFU OLFML3 (11715873_a_at) / Fold change /veh OLFML3 (11715873_a_at) / RFU LOC100653217 /// NTM (11731650_a_at) / Fold change /veh LOC100653217 /// NTM (11731650_a_at) / RFU MAPK11 (11762145_a_at) / Fold change /veh MAPK11 (11762145_a_at) / RFU FIZ1 (11724087_x_at) / Fold change /veh FIZ1 (11724087_x_at) / RFU OASL (11726364_x_at) / Fold change /veh OASL (11726364_x_at) / RFU SOX15 (11748057_x_at) / Fold change /veh SOX15 (11748057_x_at) / RFU CD79A (11719716_a_at) / Fold change /veh CD79A (11719716_a_at) / RFU HIST1H1D (11736915_at) / Fold change /veh HIST1H1D (11736915_at) / RFU CASKIN2 (11723855_a_at) / Fold change /veh CASKIN2 (11723855_a_at) / RFU LOC730098 (11760151_x_at) / Fold change /veh LOC730098 (11760151_x_at) / RFU OR4N2 (11742367_at) / Fold change /veh OR4N2 (11742367_at) / RFU PRRT2 (11749266_a_at) / Fold change /veh PRRT2 (11749266_a_at) / RFU SNX32 (11753110_a_at) / Fold change /veh SNX32 (11753110_a_at) / RFU CDHR5 (11726645_a_at) / Fold change /veh CDHR5 (11726645_a_at) / RFU RCAN1 (11760418_a_at) / Fold change /veh RCAN1 (11760418_a_at) / RFU FAM167A (11723789_a_at) / Fold change /veh FAM167A (11723789_a_at) / RFU FAM26E (11764081_at) / Fold change /veh FAM26E (11764081_at) / RFU ISYNA1 (11749810_s_at) / Fold change /veh ISYNA1 (11749810_s_at) / RFU ACY1 (11761880_at) / Fold change /veh ACY1 (11761880_at) / RFU 11764098_at / Fold change /veh 11764098_at / RFU SAMD14 (11745864_x_at) / Fold change /veh SAMD14 (11745864_x_at) / RFU NPB (11741838_a_at) / Fold change /veh NPB (11741838_a_at) / RFU TMPRSS6 (11731388_a_at) / Fold change /veh TMPRSS6 (11731388_a_at) / RFU KRTAP10-2 (11738614_at) / Fold change /veh KRTAP10-2 (11738614_at) / RFU ARHGAP8 /// PRR5-ARHGAP8 (11727945_x_at) / Fold change /veh ARHGAP8 /// PRR5-ARHGAP8 (11727945_x_at) / RFU KRTAP5-7 /// NADSYN1 (11734609_at) / Fold change /veh KRTAP5-7 /// NADSYN1 (11734609_at) / RFU RASL12 (11751679_a_at) / Fold change /veh RASL12 (11751679_a_at) / RFU CDKN2B (11736163_a_at) / Fold change /veh CDKN2B (11736163_a_at) / RFU PRF1 (11729649_at) / Fold change /veh PRF1 (11729649_at) / RFU, ZNF638 /// ZNF638-IT1 / Fold change vs veh, ZNF638 /// ZNF638-IT1 / RFU, PANK3 / Fold change vs veh, PANK3 / RFU, SH3YL1 / Fold change vs veh, SH3YL1 / RFU, ZEB2 / Fold change vs veh, ZEB2 / RFU, NRIP1 / Fold change vs veh, NRIP1 / RFU, PTTG1IP / Fold change vs veh, PTTG1IP / RFU, CAPN2 / Fold change vs veh, CAPN2 / RFU, MED14 / Fold change vs veh, MED14 / RFU, SNORA58 / Fold change vs veh, SNORA58 / RFU, C1orf63 / Fold change vs veh, C1orf63 / RFU, LRRFIP1 / Fold change vs veh, LRRFIP1 / RFU, NDUFAF7 / Fold change vs veh, NDUFAF7 / RFU, SLC12A2 / Fold change vs veh, SLC12A2 / RFU, IBTK / Fold change vs veh, IBTK / RFU, ESF1 / Fold change vs veh, ESF1 / Fold change vs veh, TMEM50B / RFU, TAOK1 / Fold change vs veh, TAOK1 / RFU, ACBD3 / Fold change vs veh, ACBD3 / RFU, TMA16 / Fold change vs veh, TMA16 / RFU, RWDD3 / Fold change vs veh, RWDD3 / RFU, BCAT1 / Fold change vs veh, BCAT1 / RFU, EDEM3 / Fold change vs veh, EDEM3 / RFU, TMEM33 / Fold change vs veh, TMEM33 / RFU, WDR75 / Fold change vs veh, WDR75 / RFU, AHCTF1 / Fold change vs veh, AHCTF1 / RFU, TFRC / Fold change vs veh, TFRC / RFU, ZDHHC17 / Fold change vs veh, ZDHHC17 / RFU, NOM1 / Fold change vs veh, NOM1 / RFU, ARL8B / Fold change vs veh, ARL8B / RFU, ZBTB11 / Fold change vs veh, ZBTB11 / RFU, TAMM41 / Fold change vs veh, TAMM41 / RFU, KIAA1704 /// LOC100996395 / Fold change vs veh, KIAA1704 /// LOC100996395 / RFU, ING1 / Fold change vs veh, ING1 / RFU, TRMT61B / Fold change vs veh, TRMT61B / RFU, FUBP3 / Fold change vs veh, FUBP3 / RFU, TP53 / Fold change vs veh, TP53 / RFU, TNKS2 / Fold change vs veh, TNKS2 / RFU, ZFP14 / Fold change vs veh, ZFP14 / RFU, ACTR2 / Fold change vs veh, ACTR2 / RFU, PPP3R1 / Fold change vs veh, PPP3R1 / RFU, PIK3R1 / Fold change vs veh, PIK3R1 / RFU, HNRNPA1 / Fold change vs veh, HNRNPA1 / RFU, RNF170 / Fold change vs veh, RNF170 / RFU, ZNF28 / Fold change vs veh, ZNF28 / RFU, RNGTT / Fold change vs veh, RNGTT / RFU, OGT / Fold change vs veh, OGT / RFU, BRD1 / Fold change vs veh, BRD1 / RFU, MARS / Fold change vs veh, MARS / RFU, ZNF655 / Fold change vs veh, ZNF655 / RFU, FAHD1 / Fold change vs veh, FAHD1 / RFU, BDP1 / Fold change vs veh, BDP1 / RFU, LRRCC1 / Fold change vs veh, LRRCC1 / RFU, ARID1A / Fold change vs veh, ARID1A / RFU, ZNF146 / Fold change vs veh, ZNF146 / RFU, ZNF330 / Fold change vs veh, ZNF330 / RFU, GPN3 / Fold change vs veh, GPN3 / RFU, C9orf123 / Fold change vs veh, C9orf123 / RFU, N4BP2L2 / Fold change vs veh, N4BP2L2 / RFU, ARFIP1 / Fold change vs veh, ARFIP1 / RFU, FAM179B / Fold change vs veh, FAM179B / RFU, BCL10 / Fold change vs veh, BCL10 / RFU, UHRF1BP1L / Fold change vs veh, UHRF1BP1L / RFU, BET1 / Fold change vs veh, BET1 / RFU, CNOT2 / Fold change vs veh, CNOT2 / RFU, ZNF268 / Fold change vs veh, ZNF268 / Fold change vs veh, ZNF507 / RFU, DGCR2 / Fold change vs veh, DGCR2 / RFU, WDSUB1 / Fold change vs veh, WDSUB1 / Fold change vs veh, HSP90B1 /// MIR3652 / RFU, ADSS / Fold change vs veh, ADSS / RFU, GK / Fold change vs veh, GK / RFU, ZNF148 / Fold change vs veh, ZNF148 / RFU, TAF9 / Fold change vs veh, TAF9 / RFU, SLC1A5 / Fold change vs veh, SLC1A5 / RFU, SLMO2 / Fold change vs veh, SLMO2 / RFU, ABCC4 / Fold change vs veh, ABCC4 / RFU, LOC101060439 /// RAP1B / Fold change vs veh, LOC101060439 /// RAP1B / RFU, RFX7 / Fold change vs veh, RFX7 / RFU, GTPBP10 / Fold change vs veh, GTPBP10 / RFU, CNEP1R1 / Fold change vs veh, CNEP1R1 / RFU, BIVM-ERCC5 /// ERCC5 / Fold change vs veh, BIVM-ERCC5 /// ERCC5 / RFU, ILF3 / Fold change vs veh, ILF3 / RFU 11762660_at / Fold change /veh 11762660_at / RFU VCAN (11757783_s_at) / Fold change /veh VCAN (11757783_s_at) / RFU DDX43 (11728927_at) / Fold change /veh DDX43 (11728927_at) / RFU KRT8 (11758188_x_at) / Fold change /veh KRT8 (11758188_x_at) / RFU NKD1 (11759106_at) / Fold change /veh NKD1 (11759106_at) / RFU SRD5A1 (11742802_a_at) / Fold change /veh SRD5A1 (11742802_a_at) / RFU TPSAB1 /// TPSB2 (11721975_s_at) / Fold change /veh TPSAB1 /// TPSB2 (11721975_s_at) / RFU GSTM3 (11746129_a_at) / Fold change /veh GSTM3 (11746129_a_at) / RFU IL23R (11737362_x_at) / Fold change /veh IL23R (11737362_x_at) / RFU TMEM51 (11727254_a_at) / Fold change /veh TMEM51 (11727254_a_at) / RFU PIWIL2 (11732686_x_at) / Fold change /veh PIWIL2 (11732686_x_at) / RFU ORM1 (11744905_x_at) / Fold change /veh ORM1 (11744905_x_at) / RFU CCDC152 (11743942_at) / Fold change /veh CCDC152 (11743942_at) / RFU ECM1 (11717891_a_at) / Fold change /veh ECM1 (11717891_a_at) / RFU IL23R (11748794_a_at) / Fold change /veh IL23R (11748794_a_at) / RFU TNFAIP8L3 (11732012_x_at) / Fold change /veh TNFAIP8L3 (11732012_x_at) / RFU MBOAT4 (11741988_at) / Fold change /veh MBOAT4 (11741988_at) / RFU 11764193_at / Fold change /veh 11764193_at / RFU TMEM53 (11763286_at) / Fold change /veh TMEM53 (11763286_at) / RFU MAGEB2 (11727129_at) / Fold change /veh MAGEB2 (11727129_at) / RFU TMEM200A (11744735_a_at) / Fold change /veh TMEM200A (11744735_a_at) / RFU CCDC152 (11751479_a_at) / Fold change /veh CCDC152 (11751479_a_at) / RFU FAM211A (11726209_a_at) / Fold change /veh FAM211A (11726209_a_at) / RFU RGS16 (11746705_a_at) / Fold change /veh RGS16 (11746705_a_at) / RFU VCAN (11755009_s_at) / Fold change /veh VCAN (11755009_s_at) / RFU RHOB (11743442_s_at) / Fold change /veh RHOB (11743442_s_at) / RFU RGS16 (11720943_a_at) / Fold change /veh RGS16 (11720943_a_at) / RFU RGS16 (11720944_at) / Fold change /veh RGS16 (11720944_at) / RFU, VPS4B / Fold change vs veh, VPS4B / RFU, CREB1 / Fold change vs veh, CREB1 / RFU, DNAJC13 / Fold change vs veh, DNAJC13 / RFU, GNAQ / Fold change vs veh, GNAQ / RFU, CDK5R1 / Fold change vs veh, CDK5R1 / RFU, ZRANB3 / Fold change vs veh, ZRANB3 / RFU, CUL4A / Fold change vs veh, CUL4A / RFU, CCNY / Fold change vs veh, CCNY / RFU, UFL1 / Fold change vs veh, UFL1 / RFU, COG3 / Fold change vs veh, COG3 / RFU, DIAPH2 / Fold change vs veh, DIAPH2 / RFU, SKA2 / Fold change vs veh, SKA2 / RFU, AFF3 / Fold change vs veh, AFF3 / RFU, LMF1 / Fold change vs veh, LMF1 / RFU, IPO11 / Fold change vs veh, IPO11 / RFU, DFFB / Fold change vs veh, DFFB / RFU, FOXP1 / Fold change vs veh, FOXP1 / RFU, CARD8 / Fold change vs veh, CARD8 / RFU, STRN3 / Fold change vs veh, STRN3 / RFU, ADK / Fold change vs veh, ADK / RFU, RASSF2 / Fold change vs veh, RASSF2 / RFU, WIPF1 / Fold change vs veh, WIPF1 / RFU, LARP1B / Fold change vs veh, LARP1B / RFU, RASA1 / Fold change vs veh, RASA1 / RFU, RB1 / Fold change vs veh, RB1 / RFU, PPFIA1 / Fold change vs veh, PPFIA1 / RFU, MAT2A / Fold change vs veh, MAT2A / RFU, CCT5 / Fold change vs veh, CCT5 / RFU, WDR92 / Fold change vs veh, WDR92 / RFU, CUX1 / Fold change vs veh, CUX1 / RFU, TTC7A / Fold change vs veh, TTC7A / RFU, TMEM135 / Fold change vs veh, TMEM135 / RFU, DEPTOR / Fold change vs veh, DEPTOR / RFU, CPM / Fold change vs veh, CPM / RFU, DNAJB6 / Fold change vs veh, DNAJB6 / RFU, CACNA2D3 / Fold change vs veh, CACNA2D3 / RFU, DTX4 / Fold change vs veh, DTX4 / RFU, TFCP2 / Fold change vs veh, TFCP2 / RFU, GMCL1 /// GMCL1P1 / Fold change vs veh, GMCL1 /// GMCL1P1 / RFU, AEBP2 / Fold change vs veh, AEBP2 / RFU, SNHG1 /// SNORD22 /// SNORD25 /// SNORD26 /// SNORD27 /// SNORD28 /// SNORD29 /// SNORD31 / Fold change vs veh, SNHG1 /// SNORD22 /// SNORD25 /// SNORD26 /// SNORD27 /// SNORD28 /// SNORD29 /// SNORD31 / Fold change (Aza/veh), C12orf56 (ProbeSet 11735607_a_at) / Fold change (ACY-1035/veh), C12orf56 (ProbeSet 11735607_a_at) / Fold change (Aza/veh), FGFR1OP (ProbeSet 11751329_s_at) / Fold change (ACY-1035/veh), FGFR1OP (ProbeSet 11751329_s_at) / Fold change (Aza/veh), VPS36 (ProbeSet 11739960_a_at) / Fold change (ACY-1035/veh), VPS36 (ProbeSet 11739960_a_at) / RFU SYPL1 (11715823_x_at) / Fold change /veh SYPL1 (11715823_x_at) / RFU IGFBP7 (11715501_s_at) / Fold change /veh IGFBP7 (11715501_s_at) / RFU REEP3 (11722064_at) / Fold change /veh REEP3 (11722064_at) / RFU IGLL1 (11728026_x_at) / Fold change /veh IGLL1 (11728026_x_at): dose or concentration left out as unconfirmed
Details: ProbeSet 11722022_s_at; LIST D

Nc1ccc(-c2cccs2)cc1NC(=O)c1ccc2c(c1)cc(C1CC1)n2CCN1CCOCC1 [ACY-1035]
RFU, CDK5R1: 47.94 RFU
